According to patent publication US20200206139A1, “COMPOSITIONS FOR THE IMPROVED DELIVERY OF DRUGS” (BOARD OF REGENTS, THE UNIVERSITY OF TEXAS SYSTEM, priority 2017, published 2020):
Values after ≈ are worked out from the molar mass of the structure shown.

Key:
[1] = Atovaquone solubility in pharmaceutical excipients; format: physicochemical; details: thermodynamic from solid
Description: Excess atovaquone (100 mg/mL) (Molekula, Irvine, Calif.) was added to each of the following excipients: Benzyl Benzoate, Tween 20, Tween 80, PEG 200, PEG 400, Labrafac, Labrafil, Capryol, Capmul, Captex, Propylene Glycol and Isopropyl Palmitate. The mixtures were shaken at 100 RPM at 37° C. for 48 hours. Each individual sample was centrifuged at 3000 RPM for 10 minutes. The supernatant was then filtered through a 0.45 μm PTFE filter. Quantification of atovaquone content in the filtrate was performed using a Dionex HPLC (Thermo Fisher Scientific Inc., Waltham, Mass.) with an Inertsil® ODS-2 column (5 μm, 4.6×250 mm) with a mobile phase 0.1% TFA ACN: 0.1% TFA H2O (80:20) at flow rate of 2 mL/min and a run time of 10 minutes.

[2] = Atovaquone solubility in pharmaceutical excipients; format: physicochemical; details: thermodynamic from solid; remark: listed apart in the source

- solubility at 48 h ([1]; Benzyl Benzoate (neat excipient), organic solvent or mixture, in Benzyl Benzoate, 37° C.): 14300 µg/mL (≈ 39 mM)
- solubility at 48 h ([1]; Capryol (neat excipient), oil or lipid, in Capryol, 37° C.): 5540 µg/mL (≈ 15.1 mM)
- solubility at 48 h ([1]; Isopropyl Palmitate (neat excipient), oil or lipid, in Isopropyl Palmitate, 37° C.): 2460 µg/mL (≈ 6.71 mM)
- solubility at 48 h ([1]; Labrafil (neat excipient), oil or lipid, in Labrafil, 37° C.): 3980 µg/mL (≈ 10.8 mM)
- solubility at 48 h ([1]; Labrasol (neat excipient), organic solvent or mixture, in Labrasol, 37° C.): 10200 µg/mL (≈ 27.9 mM)
- solubility at 48 h ([1]; PEG 200 (neat excipient), organic solvent or mixture, in PEG 200, 37° C.): 4780 µg/mL (≈ 13 mM)
- solubility at 48 h ([1]; PEG 400 (neat excipient), organic solvent or mixture, in PEG 400, 37° C.): 7220 µg/mL (≈ 19.7 mM)
- solubility at 48 h ([1]; Tween 20 (neat excipient), organic solvent or mixture, in Tween 20, 37° C.): 9690 µg/mL (≈ 26.4 mM)
- solubility at 48 h ([2]; Capmul (neat excipient), oil or lipid, in Capmul, 37° C.): 3470 µg/mL (≈ 9.46 mM)
- solubility at 48 h ([2]; Captex (neat excipient), oil or lipid, in Captex, 37° C.): 4590 µg/mL (≈ 12.5 mM)
- solubility at 48 h ([2]; Labrafac (neat excipient), oil or lipid, in Labrafac, 37° C.): 4080 µg/mL (≈ 11.1 mM)
- solubility at 48 h ([2]; Propylene Glycol (neat excipient), organic solvent or mixture, in Proplylene Gycol, 37° C.): 380 µg/mL (≈ 1.04 mM)
- solubility at 48 h ([2]; Tween 80 (neat excipient), organic solvent or mixture, in Tween 80, 37° C.): 10200 µg/mL (≈ 27.9 mM)
SMILES: O=C1C(O)=C([C@H]2CC[C@H](c3ccc(Cl)cc3)CC2)C(=O)c2ccccc21 [atovaquone]
